Experimental data reported in ChEMBL document CHEMBL3763148, “Synthesis, structure elucidation, DNA-PK and PI3K and anti-cancer activity of 8- and 6-aryl-substituted-1-3-benzoxazines” (Eur J Med Chem, 2016).

Key:
[1] = biological target: T1, Phosphatidylinositol 4,5-bisphosphate 3-kinase catalytic subunit delta isoform (Homo sapiens, UniProt O00329); assay: Inhibition of PI3Kdelta (unknown origin) incubated for 60 mins by kinase-glo luminescence assay
T1 sequence (O00329 whole entry): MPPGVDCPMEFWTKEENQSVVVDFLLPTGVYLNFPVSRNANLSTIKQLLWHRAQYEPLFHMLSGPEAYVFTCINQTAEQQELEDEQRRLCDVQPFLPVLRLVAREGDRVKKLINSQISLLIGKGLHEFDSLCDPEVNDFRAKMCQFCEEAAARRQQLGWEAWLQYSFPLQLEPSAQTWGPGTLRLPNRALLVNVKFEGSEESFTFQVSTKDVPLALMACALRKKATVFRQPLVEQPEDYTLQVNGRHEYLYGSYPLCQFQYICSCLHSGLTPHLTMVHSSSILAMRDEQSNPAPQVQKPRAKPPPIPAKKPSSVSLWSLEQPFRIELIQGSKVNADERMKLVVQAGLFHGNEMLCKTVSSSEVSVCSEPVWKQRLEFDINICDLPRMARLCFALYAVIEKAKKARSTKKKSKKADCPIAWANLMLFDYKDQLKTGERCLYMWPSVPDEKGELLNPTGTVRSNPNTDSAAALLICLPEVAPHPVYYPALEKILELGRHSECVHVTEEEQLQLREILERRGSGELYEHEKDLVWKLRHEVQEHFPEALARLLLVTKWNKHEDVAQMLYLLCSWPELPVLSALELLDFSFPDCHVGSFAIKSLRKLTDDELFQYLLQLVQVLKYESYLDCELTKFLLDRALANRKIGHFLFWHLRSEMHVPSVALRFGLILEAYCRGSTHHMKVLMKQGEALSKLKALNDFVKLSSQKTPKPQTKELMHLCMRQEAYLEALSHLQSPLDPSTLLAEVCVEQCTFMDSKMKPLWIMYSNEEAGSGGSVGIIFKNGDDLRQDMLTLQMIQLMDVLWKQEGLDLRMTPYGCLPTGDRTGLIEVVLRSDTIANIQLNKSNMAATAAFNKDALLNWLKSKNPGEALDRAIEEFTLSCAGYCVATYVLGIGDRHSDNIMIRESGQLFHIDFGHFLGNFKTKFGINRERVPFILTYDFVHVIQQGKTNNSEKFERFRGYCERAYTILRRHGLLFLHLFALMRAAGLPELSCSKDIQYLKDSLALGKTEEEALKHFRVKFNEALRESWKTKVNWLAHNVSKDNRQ

[2] = test system: CCRF-CEM; assay: Cytotoxicity against human CCRF-CEM cells assessed as cell growth inhibition at 10 uM after 48 hrs by SRB assay relative to control; assay type: functional; details: read-out: GI
[3] = test system: K562; assay: Cytotoxicity against human K562 cells assessed as cell growth inhibition at 10 uM after 48 hrs by SRB assay relative to control; assay type: functional; details: K562, 48 h, read-out: GI
[4] = test system: SR; assay: Cytotoxicity against human SR cells assessed as cell growth inhibition at 10 uM after 48 hrs by SRB assay relative to control; assay type: functional; details: read-out: GI
[5] = test system: A549; assay: Cytotoxicity against human A549 cells assessed as cell growth inhibition at 10 uM after 48 hrs by SRB assay relative to control; assay type: functional; details: A549, 48 h, read-out: GI
[6] = test system: NCI-H226; assay: Cytotoxicity against human NCI-H226 cells assessed as cell growth inhibition at 10 uM after 48 hrs by SRB assay relative to control; assay type: functional; details: NCI-H226, 48 h, read-out: GI
[7] = test system: NCI-H460; assay: Cytotoxicity against human NCI-H460 cells assessed as cell growth inhibition at 10 uM after 48 hrs by SRB assay relative to control; assay type: functional; details: NCI-H460, 48 h, read-out: GI
[8] = Cytotoxicity against human HCT116 cells assessed as cell growth inhibition at 10 uM after 48 hrs by SRB assay relative to control; assay type: functional; details: HCT-116, 48 h, read-out: GI
[9] = Cytotoxicity against human HCT15 cells assessed as cell growth inhibition at 10 uM after 48 hrs by SRB assay relative to control; assay type: functional; details: HCT-15, 48 h, read-out: GI
[10] = test system: KM12; assay: Cytotoxicity against human KM12 cells assessed as cell growth inhibition at 10 uM after 48 hrs by SRB assay relative to control; assay type: functional; details: KM12, 48 h, read-out: GI
[11] = Cytotoxicity against human SF268 cells assessed as cell growth inhibition at 10 uM after 48 hrs by SRB assay relative to control; assay type: functional; details: SF-268, 48 h, read-out: GI
[12] = test system: M14; assay: Cytotoxicity against human M14 cells assessed as cell growth inhibition at 10 uM after 48 hrs by SRB assay relative to control; assay type: functional; details: M14, 48 h, read-out: GI
[13] = test system: SK-MEL-5; assay: Cytotoxicity against human SK-MEL-5 cells assessed as cell growth inhibition at 10 uM after 48 hrs by SRB assay relative to control; assay type: functional; details: SK-MEL-5, 48 h, read-out: GI
[14] = Cytotoxicity against human UACC62 cells assessed as cell growth inhibition at 10 uM after 48 hrs by SRB assay relative to control; assay type: functional; details: UACC-62, 48 h, read-out: GI
[15] = Cytotoxicity against human OVCAR3 cells assessed as cell growth inhibition at 10 uM after 48 hrs by SRB assay relative to control; assay type: functional; details: OVCAR-3, 48 h, read-out: GI
[16] = Cytotoxicity against human OVCAR5 cells assessed as cell growth inhibition at 10 uM after 48 hrs by SRB assay relative to control; assay type: functional; details: OVCAR-5, 48 h, read-out: GI
[17] = Cytotoxicity against human OVCAR8 cells assessed as cell growth inhibition at 10 uM after 48 hrs by SRB assay relative to control; assay type: functional; details: OVCAR-8, 48 h, read-out: GI
[18] = test system: 786-0; assay: Cytotoxicity against human 786-0 cells assessed as cell growth inhibition at 10 uM after 48 hrs by SRB assay relative to control; assay type: functional; details: 786-0, 48 h, read-out: GI
[19] = test system: SN12C; assay: Cytotoxicity against human SN12C cells assessed as cell growth inhibition at 10 uM after 48 hrs by SRB assay relative to control; assay type: functional; details: read-out: GI
[20] = Cytotoxicity against human UO31 cells assessed as cell growth inhibition at 10 uM after 48 hrs by SRB assay relative to control; assay type: functional; details: UO-31, 48 h, read-out: GI
[21] = Cytotoxicity against human DU145 cells assessed as cell growth inhibition at 10 uM after 48 hrs by SRB assay relative to control; assay type: functional; details: DU-145, 48 h, read-out: GI
[22] = test system: MDA-MB-231; assay: Cytotoxicity against human MDA-MB-231 cells assessed as cell growth inhibition at 10 uM after 48 hrs by SRB assay relative to control; assay type: functional; details: MDA-MB-231, 48 h, read-out: GI
[23] = Cytotoxicity against human BT549 cells assessed as cell growth inhibition at 10 uM after 48 hrs by SRB assay relative to control; assay type: functional; details: BT-549, 48 h, read-out: GI
[24] = test system: MDA-MB-468; assay: Cytotoxicity against human MDA-MB-468 cells assessed as cell growth inhibition at 10 uM after 48 hrs by SRB assay relative to control; assay type: functional; details: MDA-MB-468, 48 h, read-out: GI

| SMILES | IC50 [1] [µM] | inhibition of growth at 10 µM [2] [%] | inhibition of growth at 10 µM [3] [%] | inhibition of growth at 10 µM [4] [%] | inhibition of growth at 10 µM [5] [%] | inhibition of growth at 10 µM [6] [%] | inhibition of growth at 10 µM [7] [%] | inhibition of growth at 10 µM [8] [%] | inhibition of growth at 10 µM [9] [%] | inhibition of growth at 10 µM [10] [%] | inhibition of growth at 10 µM [11] [%] | inhibition of growth at 10 µM [12] [%] | inhibition of growth at 10 µM [13] [%] | inhibition of growth at 10 µM [14] [%] | inhibition of growth at 10 µM [15] [%] | inhibition of growth at 10 µM [16] [%] | inhibition of growth at 10 µM [17] [%] | inhibition of growth at 10 µM [18] [%] | inhibition of growth at 10 µM [19] [%] | inhibition of growth at 10 µM [20] [%] | other results |
| --- | --- | --- | --- | --- | --- | --- | --- | --- | --- | --- | --- | --- | --- | --- | --- | --- | --- | --- | --- | --- | --- |
| O=c1nc(N2CCOCC2)oc2c(-c3cccc4c3oc3ccccc34)cccc12 | 12 | 11.6 | 19.4 | 34.7 | 12 | 27.7 | -2.97 | 6.54 | 13.1 | 12.7 | 9.26 | -2.42 | 13.7 | 37.4 | 2.85 | 10.7 | 3.88 | 21.8 | 5.07 | 40.1 | inhibition of growth at 10 µM [21]: 1.77%; inhibition of growth at 10 µM [22]: 18%; inhibition of growth at 10 µM [23]: 2.25%; inhibition of growth at 10 µM [24]: 18.7% |
| O=c1nc(N2CCOCC2)oc2c(-c3ccsc3)cccc12 | 4.8 | 8.93 | -1.04 | 21.9 | 3.82 | 21.9 | -4.22 | 2.6 | 6.07 | 2.74 | 13.1 | 3.28 | 13.4 | 31.4 | 11.8 | 10.8 | 3.77 | 11.9 | 9.14 | 23.4 | inhibition of growth at 10 µM [21]: 0.16%; inhibition of growth at 10 µM [22]: 6.78%; inhibition of growth at 10 µM [23]: 4.54%; inhibition of growth at 10 µM [24]: 15% |
